Laboratory results from patent US10945435B2, “Imidazopyrimidine derivatives with sulfur containing phenyl and pyridyl substituents” (SYNGENTA PARTICIPATIONS AG, priority 2017, dated 2021).

Assays:
Type in all cases: in vivo
[1] = tested on: Myzus persicae (Green Peach Aphid); test: Example B9 Myzus persicae feeding/contact activity; settings: foliar, 144 h, application rate of 200 ppm, mixed-age aphids on sprayed sunflower leaf discs, 6 days after infestation
Description: Myzus persicae (Green Peach Aphid): Feeding/Contact Activity
Sunflower leaf discs were placed onto agar in a 24-well microtiter plate and sprayed with aqueous test solutions prepared from 10,000 ppm DMSO stock solutions. After drying, the leaf discs were infested with an aphid population of mixed ages. The samples were assessed for mortality 6 days after infestation.

[2] = tested on: Plutella xylostella (Diamond Back Moth); test: Example B13 Plutella xylostella mortality and growth inhibition; settings: 120 h, application rate of 200 ppm, L2 larvae on treated artificial diet, 5 days after infestation, read-out: effect in at least one of the two categories (mortality or growth inhibition)
Description: Plutella xylostella (Diamond Back Moth)
(§1) 24-well microtiter plates with artificial diet were treated with aqueous test solutions prepared from 10,000 ppm DMSO stock solutions by pipetting. After drying, the plates were infested with L2 larvae (10 to 15 per well). The samples were assessed for mortality and growth inhibition in comparison to untreated samples 5 days after infestation.

[3] = tested on: Plutella xylostella (Diamond Back Moth); test: Example B11 Plutella xylostella growth inhibition activity; settings: 120 h, application rate of 200 ppm, L2 larvae on treated artificial diet, 5 days after infestation
Description: Plutella xylostella (Diamond Back Moth): Growth Inhibition Activity
as §1, with “for” for “for mortality and”, “infestation. Control of Plutella xylostella by a test sample is given when the growth inhibition is higher than the untreated sample.” for “infestation.”

[4] = tested on: Euschistus heros (Neotropical Brown Stink Bug); test: Example B7 Euschistus heros feeding/contact activity; settings: 120 h, application rate of 200 ppm, N2 nymphs on sprayed soybean leaves, 5 days after infestation
Description: Euschistus heros (Neotropical Brown Stink Bug): Feeding/Contact Activity
(§2) Soybean leaves on agar in 24-well microtiter plates were sprayed with aqueous test solutions prepared from 10,000 ppm DMSO stock solutions. After drying the leaves were infested with N2 nymphs. The samples were assessed for mortality 5 days after infestation.

[5] = tested on: Diabrotica balteata (Corn Root Worm); test: Example B2 Diabrotica balteata mortality and growth inhibition; settings: 96 h, application rate of 200 ppm, L2 larvae on sprayed maize sprouts, 4 days after infestation, read-out: effect in at least one of the two categories (mortality or growth inhibition)
Description: Diabrotica balteata (Corn Root Worm)
as §1, with “Maize sprouts placed onto an agar layer in 24-well” for “24-well”, “plates” for “plates with artificial diet”, “spraying.” for “pipetting.”, “(6” for “(10”, “10” for “15”, “4” for “5”

[6] = tested on: Diabrotica balteata (Corn Root Worm); test: Example B4 Diabrotica balteata mortality; settings: 96 h, application rate of 200 ppm, L2 larvae on sprayed maize sprouts, 4 days after infestation
Description: Diabrotica Balteata (Corn Root Worm):
Maize sprouts placed onto an agar layer in 24-well microtiter plates were treated with aqueous test solutions prepared from 10,000 ppm DMSO stock solutions by spraying. After drying, the plates were infested with L2 larvae (6 to 10 per well). The samples were assessed for mortality 4 days after infestation.

[7] = tested on: Euschistus heros (Neotropical Brown Stink Bug); test: Example B5 Euschistus heros mortality and growth inhibition; settings: 120 h, application rate of 200 ppm, N2 nymphs on sprayed soybean leaves, 5 days after infestation, read-out: effect in at least one of the two categories (mortality or growth inhibition)
Description: Euschistus heros (Neotropical Brown Stink Bug)
as §2, with “mortality and growth inhibition in comparison to untreated samples” for “mortality”

[8] = tested on: Plutella xylostella (Diamond Back Moth); test: Example B12 Plutella xylostella feeding/contact activity; settings: 120 h, application rate of 200 ppm, L2 larvae on treated artificial diet, 5 days after infestation
Description: Plutella xylostella (Diamond Back Moth): Feeding/Contact Activity
24-well microtiter plates with artificial diet were treated with aqueous test solutions prepared from 10,000 ppm DMSO stock solutions by pipetting. After drying, the plates were infested with L2 larvae (10 to 15 per well). The samples were assessed for mortality 5 days after infestation.

[9] = tested on: Spodoptera littoralis (Egyptian Cotton Leaf Worm); test: Example B14 Spodoptera littoralis anti-feeding activity; settings: foliar, 72 h, application rate of 200 ppm, L1 larvae on sprayed cotton leaf discs, 3 days after infestation, read-out: control (anti-feeding effect)
Description: Spodoptera littoralis (Egyptian Cotton Leaf Worm): Anti-Feeding Activity
Cotton leaf discs were placed onto agar in 24-well microtiter plates and sprayed with aqueous test solutions prepared from 10,000 ppm DMSO stock solutions. After drying the leaf discs were infested with five L1 larvae. The samples were assessed for anti-feeding effect in comparison to untreated samples 3 days after infestation. Control of Spodoptera littoralis by a test sample is given when the anti-feedant effect is higher than the untreated sample.

[10] = tested on: Spodoptera littoralis (Egyptian Cotton Leaf Worm); test: Example B16 Spodoptera littoralis feeding/contact activity; settings: foliar, 72 h, application rate of 200 ppm, L1 larvae on sprayed cotton leaf discs, 3 days after infestation
Description: Spodoptera littoralis (Egyptian Cotton Leaf Worm): Feeding/Contact Activity
Cotton leaf discs were placed onto agar in 24-well microtiter plates and sprayed with aqueous test solutions prepared from 10,000 ppm DMSO stock solutions. After drying the leaf discs were infested with five L1 larvae. The samples were assessed for mortality 3 days after infestation.

[11] = tested on: Bemisia tabaci (Cotton White Fly); test: Example B1 Bemisia tabaci feeding/contact activity; settings: foliar, 144 h, application rate of 200 ppm, adult white flies on sprayed cotton leaf discs, 6 days after incubation
Description: Bemisia tabaci (Cotton White Fly): Feeding/Contact Activity
Cotton leaf discs were placed on agar in 24-well microtiter plates and sprayed with aqueous test solutions prepared from 10,000 ppm DMSO stock solutions. After drying the leaf discs were infested with adult white flies. The samples were checked for mortality 6 days after incubation.

[12] = tested on: Frankliniella occidentalis (Western Flower Thrips); test: Example B8 Frankliniella occidentalis feeding/contact activity; settings: foliar, 168 h, application rate of 200 ppm, mixed-age population on sprayed sunflower leaf discs, 7 days after infestation
Description: Frankliniella occidentalis (Western Flower Thrips): Feeding/Contact Activity
Sunflower leaf discs were placed on agar in 24-well microtiter plates and sprayed with aqueous test solutions prepared from 10,000 DMSO stock solutions. After drying the leaf discs were infested with a Frankliniella population of mixed ages. The samples were assessed for mortality 7 days after infestation.

[13] = tested on: Myzus persicae (Green Peach Aphid); test: Example B10 Myzus persicae systemic activity; settings: 144 h, test rate of 24 ppm, roots of infested pea seedlings in test solution, 6 days
Description: Myzus persicae (Green Peach Aphid). Systemic Activity
Roots of pea seedlings infested with an aphid population of mixed ages were placed directly into aqueous test solutions prepared from 10,000 DMSO stock solutions. The samples were assessed for mortality 6 days after placing seedlings into test solutions.

CCS(=O)(=O)c1cc(OCC(F)F)cnc1-c1cn2cnc([S+]([O-])C(F)(F)F)cc2n1 (stereo not drawn) [Compound P3, 2-[5-(2,2-difluoroethoxy)-3-ethylsulfonyl-2-pyridyl]-7-(trifluoromethylsulfinyl)imidazo[1,2-c]pyrimidine]
≥ 80%: mortality at 200 ppm [1] | percent effect (mortality or growth inhibition) at 200 ppm [2] | inhibition at 200 ppm [3] | mortality at 200 ppm [4] | percent effect (mortality or growth inhibition) at 200 ppm [5] | mortality at 200 ppm [6] | percent effect (mortality or growth inhibition) at 200 ppm [7]

CCS(=O)(=O)c1cc(OC(C)(C)C#N)cnc1-c1cn2cnc(C(F)(F)C(F)(F)F)cc2n1 [Compound P18, 2-[[5-ethylsulfonyl-6-[7-(1,1,2,2,2-pentafluoroethyl)imidazo[1,2-c]pyrimidin-2-yl]-3-pyridyl]oxy]-2-methyl-propanenitrile]
≥ 80%: mortality at 200 ppm [1] | percent effect (mortality or growth inhibition) at 200 ppm [2] | mortality at 200 ppm [8] | inhibition at 200 ppm [3] | pest or weed control at 200 ppm [9] | mortality at 200 ppm [10] | mortality at 200 ppm [11] | mortality at 200 ppm [4] | mortality at 200 ppm [12] | percent effect (mortality or growth inhibition) at 200 ppm [5] | mortality at 200 ppm [6] | percent effect (mortality or growth inhibition) at 200 ppm [7]

CCS(=O)(=O)c1cc(OCC(F)(F)F)cnc1-c1cn2cnc(SC(F)(F)F)cc2n1 [Compound P1, 2-[3-ethylsulfonyl-5-(2,2,2-trifluoroethoxy)-2-pyridyl]-7-(trifluoromethylsulfanyl)imidazo[1,2-c]pyrimidine]
≥ 80%: mortality at 200 ppm [1] | percent effect (mortality or growth inhibition) at 200 ppm [2] | mortality at 200 ppm [8] | inhibition at 200 ppm [3] | pest or weed control at 200 ppm [9] | mortality at 200 ppm [10] | mortality at 200 ppm [11] | mortality at 200 ppm [4] | percent effect (mortality or growth inhibition) at 200 ppm [5] | mortality at 200 ppm [6] | percent effect (mortality or growth inhibition) at 200 ppm [7]

CCS(=O)(=O)c1cc(OC(C)C)cnc1-c1cn2cnc(SC(F)(F)F)cc2n1 [Compound P2, 2-(3-ethylsulfonyl-5-isopropoxy-2-pyridyl)-7-(trifluoromethylsulfanyl)imidazo[1,2-c]pyrimidine]
≥ 80%: percent effect (mortality or growth inhibition) at 200 ppm [2] | mortality at 200 ppm [8] | inhibition at 200 ppm [3] | pest or weed control at 200 ppm [9] | mortality at 200 ppm [10] | mortality at 200 ppm [4] | percent effect (mortality or growth inhibition) at 200 ppm [5] | mortality at 200 ppm [6] | percent effect (mortality or growth inhibition) at 200 ppm [7]

CCS(=O)(=O)c1cc(OC(F)F)cnc1-c1cn2cnc(C(F)(F)F)cc2n1 [Compound P21, 2-[5-(difluoromethoxy)-3-ethylsulfonyl-2-pyridyl]-7-(trifluoromethyl)imidazo[1,2-c]pyrimidine]
≥ 80%: mortality at 200 ppm [1] | percent effect (mortality or growth inhibition) at 200 ppm [2] | mortality at 200 ppm [8] | inhibition at 200 ppm [3] | pest or weed control at 200 ppm [9] | mortality at 200 ppm [10] | mortality at 200 ppm [11] | mortality at 200 ppm [4] | percent effect (mortality or growth inhibition) at 200 ppm [5] | mortality at 200 ppm [6] | percent effect (mortality or growth inhibition) at 200 ppm [7]

CCS(=O)(=O)c1cc(OCCSC)cnc1-c1cn2cnc(C(F)(F)F)cc2n1 [Compound P15, 2-[3-ethylsulfonyl-5-(2-methylsulfanylethoxy)-2-pyridyl]-7-(trifluoromethyl)imidazo[1,2-c]pyrimidine]
≥ 80%: mortality at 200 ppm [1] | mortality at 24 ppm [13] | mortality at 200 ppm [11] | mortality at 200 ppm [4] | percent effect (mortality or growth inhibition) at 200 ppm [7]

CCS(=O)(=O)c1cc(OCC(F)(F)F)cnc1-c1cn2cnc(C(F)(F)F)cc2n1 [Compound P6, 2-[3-ethylsulfonyl-5-(2,2,2-trifluoroethoxy)-2-pyridyl]-7-(trifluoromethyl)imidazo[1,2-c]pyrimidine]
≥ 80%: mortality at 200 ppm [1] | percent effect (mortality or growth inhibition) at 200 ppm [2] | mortality at 24 ppm [13] | mortality at 200 ppm [8] | inhibition at 200 ppm [3] | pest or weed control at 200 ppm [9] | mortality at 200 ppm [10] | mortality at 200 ppm [11] | mortality at 200 ppm [4] | percent effect (mortality or growth inhibition) at 200 ppm [5] | mortality at 200 ppm [6] | percent effect (mortality or growth inhibition) at 200 ppm [7]

CCS(=O)(=O)c1cc(OC(C)C)cnc1-c1cn2cnc(C(F)(F)F)cc2n1 [Compound P7, 2-(3-ethylsulfonyl-5-isopropoxy-2-pyridyl)-7-(trifluoromethyl)imidazo[1,2-c]pyrimidine]
≥ 80%: mortality at 200 ppm [1] | percent effect (mortality or growth inhibition) at 200 ppm [2] | mortality at 200 ppm [8] | inhibition at 200 ppm [3] | pest or weed control at 200 ppm [9] | mortality at 200 ppm [10] | mortality at 200 ppm [4] | percent effect (mortality or growth inhibition) at 200 ppm [5] | mortality at 200 ppm [6] | percent effect (mortality or growth inhibition) at 200 ppm [7]

CCS(=O)(=O)c1cc(OCS(C)(=O)=O)cnc1-c1cn2cnc(C(F)(F)F)cc2n1 [Compound P23, 2-[3-ethylsulfonyl-5-(methylsulfonylmethoxy)-2-pyridyl]-7-(trifluoromethyl)imidazo[1,2-c]pyrimidine]
≥ 80%: mortality at 200 ppm [1] | mortality at 24 ppm [13] | mortality at 200 ppm [4] | percent effect (mortality or growth inhibition) at 200 ppm [7]
